{"source": "patent US12653191B2", "about": "“Active compound combinations” (Bayer Aktiengesellschaft, priority 2020, dated 2026)", "key": {"Alternaria alternate": {"test_system": "Alternaria alternate", "assay": "in vitro-Test with fungal microorganisms, Method A (tables A1-A12)", "assay_type": "cell-based, Alternaria alternata", "conditions": "Alternaria, applied alone, read-out: Efficacy %", "how_it_was_run": "(§1)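 First, compound in methanol with alkylaryl-polyglycol-ether was dried down in the plate. Next, spore or mycelium suspension in potato dextrose broth was added and extinction read at 620 nm. After 3-5 days at 20° C, 85% RH, reading was repeated and efficacy scored against untreated wells.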"}, "Alternaria alternata": {"test_system": "Alternaria alternata", "assay": "in vitro-Test with fungal microorganisms, Method B (tables A13-A22)", "assay_type": "cell-based", "conditions": "Alternaria alternata, read-out: Efficacy", "how_it_was_run": "(§2)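 Efficacy, relative to untreated control (0% = growth as in control, 100% = no growth), from photometric growth measurement at 600 nm after 3 to 7 days at 20° C., 85% relative humidity. Compound applied in methanol+emulsifier, solvent evaporated, then spore/mycelium-amended liquid medium added.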"}, "Botrytis cinerea": {"test_system": "Botrytis cinerea", "assay": "in vitro-Test with fungal microorganisms, Method A (tables B1-B14)", "assay_type": "cell-based", "conditions": "Botrytis cinerea, alone, read-out: Efficacy %", "how_it_was_run": "as §1"}, "Cercospora beticola [1]": {"test_system": "Cercospora beticola", "assay": "in vitro-Test with fungal microorganisms, Method A (tables C1-C10)", "assay_type": "cell-based", "conditions": "Cercospora beticola, read-out: Efficacy %", "how_it_was_run": "as §1"}, "Cercospora beticola [2]": {"test_system": "Cercospora beticola", "assay": "in vitro-Test with fungal microorganisms, Method B (tables C11-C20)", "assay_type": "cell-based", "conditions": "Cercospora beticola, single compound, 0.008 ppm; read-out: Efficacy %", "how_it_was_run": "as §2"}, "[3]": {"test_system": "Colletotrichum lindemuthianum", "assay": "in vitro-Test with fungal microorganisms, Method A (tables D1-D8)", "assay_type": "cell-based", "conditions": "Colletotrichum lindemuthianum, read-out: Efficacy %", "how_it_was_run": "as §1"}, "Cordana musae": {"test_system": "Cordana musae", "assay": "in vitro-Test with fungal microorganisms, Method A (tables E1-E8)", "assay_type": "cell-based", "conditions": "Neocordana musae, read-out: Efficacy %", "how_it_was_run": "as §1"}, "Diaporthe citri [4]": {"test_system": "Diaporthe citri", "assay": "in vitro-Test with fungal microorganisms, Method A (tables F1-F11)", "assay_type": "cell-based", "conditions": "Diaporthe citri, read-out: Efficacy", "how_it_was_run": "as §1"}, "Diaporthe citri [5]": {"test_system": "Diaporthe citri", "assay": "in vitro-Test with fungal microorganisms, Method B (tables F12-F15)", "assay_type": "cell-based", "conditions": "Table F15; 0.008 ppm alone", "how_it_was_run": "as §2"}, "Fusarium culmorum": {"test_system": "Fusarium culmorum", "assay": "in vitro-Test with fungal microorganisms, Method A (tables G1-G4)", "assay_type": "cell-based", "conditions": "Fusarium culmorum, read-out: Efficacy", "how_it_was_run": "as §1"}, "Parastagonospora nodorum": {"test_system": "Parastagonospora nodorum", "assay": "in vitro-Test with fungal microorganisms, Method B (tables H5-H8)", "assay_type": "cell-based", "conditions": "Parastagonospora nodorum, read-out: Efficacy", "how_it_was_run": "as §2"}, "[6]": {"test_system": "Ustilago segetum var. avenae", "assay": "in vitro-Test with fungal microorganisms, Method A (tables I1-I5)", "assay_type": "cell-based", "conditions": "alone, read-out: Efficacy %", "how_it_was_run": "as §1"}, "[7]": {"test_system": "Ustilago segetum var. avenae", "assay": "in vitro-Test with fungal microorganisms, Method B (tables I6-I11)", "assay_type": "cell-based", "conditions": "read-out: Efficacy %", "how_it_was_run": "as §2"}, "Colletotrichum coccodes": {"test_system": "Colletotrichum coccodes", "assay": "in vitro-Test with fungal microorganisms, Method B (tables J1-J11)", "assay_type": "cell-based", "conditions": "Colletotrichum coccodes, read-out: Efficacy %", "how_it_was_run": "as §2"}}, "note": "Like-named read-outs stand apart in the source and are kept apart here.", "data": [{"smiles": "CON=C(C(=O)OC)c1ccccc1CON=C(C)c1cccc(C(F)(F)F)c1", "note": "[(3.020) trifloxystrobin, trifloxystrobin]", "values": [{"measurement": "inhibition of growth at 0.008 ppm", "setting": "Alternaria alternate; 0.008 ppm", "value": 44, "unit": "%"}, {"measurement": "inhibition of growth at 0.04 ppm", "setting": "Alternaria alternate; 0.04 ppm", "value": 87, "unit": "%"}, {"measurement": "inhibition of growth at 0.2 ppm", "setting": "Alternaria alternate; 0.2 ppm", "value": 95, "unit": "%"}, {"measurement": "inhibition of growth at 1 ppm", "setting": "Alternaria alternate; 1.0 ppm", "value": 96, "unit": "%"}, {"measurement": "inhibition of growth at 0.04 ppm", "setting": "Alternaria alternata; 0.04 ppm", "value": 49, "unit": "%"}, {"measurement": "inhibition of growth at 0.2 ppm", "setting": "Alternaria alternata; 0.2 ppm", "value": 85, "unit": "%"}, {"measurement": "inhibition of growth at 0.008 ppm", "setting": "Botrytis cinerea; 0.008 ppm", "value": 19, "unit": "%"}, {"measurement": "inhibition of growth at 0.04 ppm", "setting": "Botrytis cinerea; 0.04 ppm", "value": 0, "unit": "%"}, {"measurement": "inhibition of growth at 0.2 ppm", "setting": "Botrytis cinerea; 0.2 ppm", "value": 0, "unit": "%"}, {"measurement": "inhibition of growth at 1 ppm", "setting": "Botrytis cinerea; 1.0 ppm", "value": 37, "unit": "%"}, {"measurement": "inhibition of growth at 0.008 ppm", "setting": "Cercospora beticola [1]; 0.008 ppm alone", "value": 95, "unit": "%"}, {"measurement": "inhibition of growth at 0.04 ppm", "setting": "Cercospora beticola [1]; 0.04 ppm alone", "value": 100, "unit": "%"}, {"measurement": "inhibition of growth at 0.2 ppm", "setting": "Cercospora beticola [1]; 0.2 ppm alone", "value": 100, "unit": "%"}, {"measurement": "inhibition of growth at 1 ppm", "setting": "Cercospora beticola [1]; 1.0 ppm alone", "value": 100, "unit": "%"}, {"measurement": "inhibition of growth at 0.008 ppm", "setting": "Cercospora beticola [2]", "value": 96, "unit": "%"}, {"measurement": "inhibition of growth at 0.008 ppm", "setting": "[3]; mixing partner alone, 0.008 ppm", "value": 30, "unit": "%"}, {"measurement": "inhibition of growth at 0.04 ppm", "setting": "[3]; mixing partner alone, 0.04 ppm", "value": 80, "unit": "%"}, {"measurement": "inhibition of growth at 0.2 ppm", "setting": "[3]; mixing partner alone, 0.2 ppm", "value": 92, "unit": "%"}, {"measurement": "inhibition of growth at 1 ppm", "setting": "[3]; mixing partner alone, 1.0 ppm", "value": 88, "unit": "%"}, {"measurement": "inhibition of growth at 0.008 ppm", "setting": "[3]; single active at 0.008 ppm", "value": 25, "unit": "%"}, {"measurement": "inhibition of growth at 0.04 ppm", "setting": "[3]; single active at 0.04 ppm", "value": 66, "unit": "%"}, {"measurement": "inhibition of growth at 0.2 ppm", "setting": "[3]; single active at 0.2 ppm", "value": 85, "unit": "%"}, {"measurement": "inhibition of growth at 1 ppm", "setting": "[3]; single active at 1.0 ppm", "value": 84, "unit": "%"}, {"measurement": "inhibition of growth at 0.008 ppm", "setting": "Cordana musae; mixing partner alone", "value": 3, "unit": "%"}, {"measurement": "inhibition of growth at 1 ppm", "setting": "Cordana musae; mixing partner alone", "value": 66, "unit": "%"}, {"measurement": "inhibition of growth at 0.008 ppm", "setting": "Cordana musae; single substance", "value": 13, "unit": "%"}, {"measurement": "inhibition of growth at 0.04 ppm", "setting": "Cordana musae; single substance, 0.04 ppm", "value": 67, "unit": "%"}, {"measurement": "inhibition of growth at 0.2 ppm", "setting": "Cordana musae; single substance, 0.2 ppm", "value": 48, "unit": "%"}, {"measurement": "inhibition of growth at 1 ppm", "setting": "Cordana musae; single substance", "value": 77, "unit": "%"}, {"measurement": "inhibition of growth at 0.008 ppm", "setting": "Diaporthe citri [4]; applied alone", "value": 65, "unit": "%"}, {"measurement": "inhibition of growth at 0.04 ppm", "setting": "Diaporthe citri [4]; applied alone", "value": 95, "unit": "%"}, {"measurement": "inhibition of growth at 0.008 ppm", "setting": "Diaporthe citri [4]; single active", "value": 63, "unit": "%"}, {"measurement": "inhibition of growth at 0.04 ppm", "setting": "Diaporthe citri [4]; single active", "value": 95, "unit": "%"}, {"measurement": "inhibition of growth at 0.2 ppm", "setting": "Diaporthe citri [4]; single active, 0.2 ppm", "value": 95, "unit": "%"}, {"measurement": "inhibition of growth at 1 ppm", "setting": "Diaporthe citri [4]; single active, 1.0 ppm", "value": 96, "unit": "%"}, {"measurement": "Efficacy", "setting": "Diaporthe citri [5]", "value": 68, "unit": "%"}, {"measurement": "inhibition of growth at 0.2 ppm", "setting": "Fusarium culmorum; 0.2 ppm, alone", "value": 22, "unit": "%"}, {"measurement": "inhibition of growth at 1 ppm", "setting": "Fusarium culmorum; 1.0 ppm, alone", "value": 5, "unit": "%"}, {"measurement": "inhibition of growth at 0.04 ppm", "setting": "Fusarium culmorum; Table G1, 0.04 ppm alone", "value": 0, "unit": "%"}, {"measurement": "inhibition of growth at 0.2 ppm", "setting": "Fusarium culmorum; Table G1, 0.2 ppm alone", "value": 15, "unit": "%"}, {"measurement": "inhibition of growth at 1 ppm", "setting": "Fusarium culmorum; Table G1, 1.0 ppm alone", "value": 15, "unit": "%"}, {"measurement": "inhibition of growth at 0.008 ppm", "setting": "Parastagonospora nodorum; 0.008 ppm", "value": 17, "unit": "%"}, {"measurement": "inhibition of growth at 0.04 ppm", "setting": "Parastagonospora nodorum; 0.04 ppm", "value": 54, "unit": "%"}, {"measurement": "inhibition of growth at 0.2 ppm", "setting": "Parastagonospora nodorum; 0.2 ppm", "value": 83, "unit": "%"}, {"measurement": "inhibition of growth at 1 ppm", "setting": "Parastagonospora nodorum; 1 ppm", "value": 87, "unit": "%"}, {"measurement": "inhibition of growth at 0.008 ppm", "setting": "[6]; 0.008 ppm", "value": 19, "unit": "%"}, {"measurement": "inhibition of growth at 0.04 ppm", "setting": "[6]; 0.04 ppm", "value": 0, "unit": "%"}, {"measurement": "inhibition of growth at 1 ppm", "setting": "[6]; 1.0 ppm", "value": 64, "unit": "%"}, {"measurement": "inhibition of growth at 5 ppm", "setting": "[6]; 5.0 ppm", "value": 100, "unit": "%"}, {"measurement": "inhibition of growth at 0.04 ppm", "setting": "[7]; 0.04 ppm", "value": 38, "unit": "%"}, {"measurement": "inhibition of growth at 0.2 ppm", "setting": "[7]; 0.2 ppm", "value": 54, "unit": "%"}, {"measurement": "inhibition of growth at 1 ppm", "setting": "[7]; 1 ppm", "value": 60, "unit": "%"}, {"measurement": "inhibition of growth at 0.04 ppm", "setting": "Colletotrichum coccodes; 0.04 ppm", "value": 35, "unit": "%"}, {"measurement": "inhibition of growth at 0.008 ppm", "setting": "Colletotrichum coccodes; single active compound at 0.008 ppm", "value": 0, "unit": "%"}, {"measurement": "inhibition of growth at 1 ppm", "setting": "Colletotrichum coccodes; single active compound at 1 ppm", "value": 50, "unit": "%"}]}]}
